Blank lines part the entries; values can stand above or below the compound they belong to.
Columns and labels:
[1] = tested on: cultured human mast cells (CHMC); assay: CHMC low cell density IgE activation: tryptase assay; format: cell-based; conditions: IgE activation
In short: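 Tryptase release, fluorogenic substrate, 30 min RT. Prior anti-IgE stimulation of CHMC, 30 min, 37 °C, after 1 hr preincubation at 1000–1500 cells/well in MT; unstimulated wells received MT.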

[2] = tested on: cultured human mast cells (CHMC); assay: CHMC low cell density ionomycin activation: tryptase assay; format: cell-based; conditions: read-out: LD Tryptase, CHMC, Iono, 3 pt
[3] = Homo sapiens, Mast cell, low cell density CHMC, tryptase release, 3 pt, read-out: LD Tryptase, CHMC, IgE, 3 pt
[4] = Homo sapiens, Mast cell, low cell density CHMC, tryptase release, 8 pt, read-out: LD Tryptase, CHMC, IgE, 8 pt
[5] = Homo sapiens, Mast cell, low cell density CHMC, tryptase release, 3 pt
[6] = Homo sapiens, Mast cell, low cell density CHMC, tryptase readout, 3 pt, read-out: LD Tryptase, CHMC, IgE, 3 pt
[7] = Homo sapiens, Mast cell, low cell density CHMC, tryptase readout, 3 pt
[8] = low cell density CHMC, tryptase release, 3 point, read-out: LD Tryptase, CHMC, IgE, 3 pt
[9] = low cell density CHMC, tryptase release, 8 point, read-out: LD Tryptase, CHMC, IgE, 8 pt
[10] = low cell density CHMC, tryptase release, 3 point
[11] = Homo sapiens, Mast cell, low cell density, 3 pt, read-out: LD Tryptase, CHMC, IgE, 3 pt
[12] = Homo sapiens, Mast cell, low cell density, 3 pt
[13] = Homo sapiens, Mast cell, low cell density CHMC, tryptase, 3 pt, read-out: LD Tryptase, CHMC, IgE, 3 pt
[14] = Homo sapiens, Mast cell, low cell density CHMC, tryptase, 3 pt
[15] = low cell density, 3 pt, read-out: LD Tryptase, CHMC, IgE, 3 pt
[16] = low cell density CHMC, tryptase release, 3 pt, read-out: LD Tryptase, CHMC, IgE, 3 pt
[17] = low cell density CHMC, tryptase release, 8 pt, read-out: LD Tryptase, CHMC, IgE, 8 pt
[18] = low cell density CHMC, tryptase release, 3 pt
[19] = low cell density CHMC, tryptase, 3 pt, read-out: LD Tryptase, CHMC, IgE, 3 pt
[20] = low cell density CHMC, tryptase, 3 pt
[21] = Homo sapiens, Mast cell, low cell density CHMC, tryptase readout, 8 pt, read-out: LD Tryptase, CHMC, IgE, 8 pt

IC50 [1, 3]: < 10 µM
IC50 [1, 4]: < 10 µM
IC50 [2, 5]: > 10 µM
Compound: O=C1COc2ccc(Nc3nc(Nc4ccc(-c5ncco5)cc4)ncc3F)cc2N1 [Compound 239]

IC50 [1, 6]: > 10 µM
IC50 [2, 7]: > 10 µM
Compound: Fc1cnc(Nc2cccc(N3CCOCC3)c2)nc1Nc1cccc(NC2=NCCN2)c1 [Compound 1097, 5-Fluoro-N4-[3-(N-2-imidazolin-2-yl)aminophenyl]-N2-(3-morpholinophenyl)-2,4-pyrimidinediamine]

IC50 [1, 8]: < 10 µM
IC50 [1, 9]: < 10 µM
IC50 [2, 10]: > 10 µM
Compound: CNC(=O)COc1ccc(Nc2nc(Nc3ccc4ccn(CC(=O)OC)c4c3)ncc2F)cc1Cl [Compound 640, N4-[3-Chloro-4-(N-methylamino)carbonylmethyleneoxyphenyl]-5-fluoro-N2-[1-(methoxycarbonylmethylene)indol-6-yl]-2,4-pyrimidinediamine]

IC50 [1, 3]: < 10 µM
IC50 [1, 4]: < 10 µM
IC50 [2, 5]: > 10 µM
Compound: CS(=O)(=O)NCCCn1ncc2cc(Nc3ncc(F)c(Nc4ccc(Cl)c(Cl)c4)n3)ccc21 [Compound 833, N4-(3,4-Dichlorophenyl)-5-fluoro-N2-[1-[3-(N-methylsulfonylamino)propyl]indazol-5-yl]-2,4-pyrimidinediamine]

IC50 [1, 3]: < 10 µM
IC50 [1, 4]: < 10 µM
IC50 [2, 5]: > 10 µM
Compound: C[C@@H]1Oc2ccc(Nc3nc(Nc4cccc(-c5cocn5)c4)ncc3F)cc2NC1=O [Compound 251]

IC50 [1, 3]: < 10 µM
IC50 [1, 4]: > 10 µM
IC50 [2, 5]: > 10 µM
Compound: O=C1Nc2ccc(Nc3nc(Nc4ccc(-c5cnco5)cc4)ncc3F)cc2OC1CCO (stereo not drawn) [Compound 249]

IC50 [1, 11]: < 10 µM
IC50 [2, 12]: > 10 µM
Compound: COc1ccc(Nc2ncc(F)c(Nc3cccc(O)c3)n2)c(OC)n1 [Compound 472]

IC50 [1, 11]: < 10 µM
IC50 ([1]; Homo sapiens, Mast cell, low cell density, 8 pt, read-out: LD Tryptase, CHMC, IgE, 8 pt): < 10 µM
IC50 [2, 12]: > 10 µM
Compound: COc1c(C)cc(Nc2ncc(F)c(Nc3ccc4c(c3)OCCO4)n2)cc1C [Compound 998]

IC50 ([1]; Homo sapiens, Mast cell, low cell density CHMC, tryptase release, 3 point, read-out: LD Tryptase, CHMC, IgE, 3 pt): > 10 µM
IC50 ([2]; Homo sapiens, Mast cell, low cell density CHMC, tryptase release, 3 point): > 10 µM
Compound: CN(c1ccc(Cl)c(C(F)(F)F)c1)c1nc(Cl)ncc1F [Compound 658]

IC50 [1, 3]: < 10 µM
IC50 [1, 4]: < 10 µM
IC50 [2, 5]: > 10 µM
Compound: COc1ccc(Nc2ncc(F)c(Nc3ccc4c(c3)NC(=O)CS4)n2)cc1Cl [Compound 257]

IC50 [1, 13]: < 10 µM
IC50 ([1]; Homo sapiens, Mast cell, low cell density CHMC, tryptase, 8 pt, read-out: LD Tryptase, CHMC, IgE, 8 pt): < 10 µM
IC50 [2, 14]: > 10 µM
Compound: COc1cc(Nc2ncc(F)c(Nc3ccc4c(n3)NCCO4)n2)cc(OC)c1OC [Compound 1145, N4-(3,4-Dihydro-2H,4H-5-pyrid[1,4]oxazin-6-yl)-5-fluoro-N2-(3,4,5-trimethoxyphenyl)-2,4-pyrimidinediamine]

IC50 [1, 15]: < 10 µM
IC50 ([1]; low cell density, 8 pt, read-out: LD Tryptase, CHMC, IgE, 8 pt): < 10 µM
IC50 ([2]; low cell density, 3 pt): > 10 µM
Compound: CNS(=O)(=O)c1ccc(Nc2ncc(F)c(Nc3ccc(OC(F)(F)F)c(Cl)c3)n2)cc1OC [Compound 498, N4-(3-Chloro-4-trifluoromethoxyphenyl)-5-fluoro-N2-[4-(3-methoxyphenyl-N-methylamino)sulfonyl]-2,4-pyrimidinediamine]

IC50 ([1]; low cell density CHMC, tryptase readout, 3 pt, read-out: LD Tryptase, CHMC, IgE, 3 pt): < 10 µM
IC50 ([1]; low cell density CHMC, tryptase readout, 8 pt, read-out: LD Tryptase, CHMC, IgE, 8 pt): < 10 µM
IC50 ([2]; low cell density CHMC, tryptase readout, 3 pt): > 10 µM
Compound: CC1(C)Oc2ccc(Nc3nc(Nc4cccc(-c5cocn5)c4)ncc3F)nc2NC1=O [Compound 1029, N4-(2,2-Dimethyl-3-oxo-4H-5-pyrid[1,4]oxazin-6-yl)-5-fluoro-N2-[3-(oxazol-4-yl)phenyl]-2,4-pyrimidinediamine]

IC50 [1, 13]: > 10 µM
IC50 [2, 14]: < 10 µM
Compound: Fc1cnc(Nc2ccc(N3CCOCC3)cc2)nc1NC1CNC1 [Compound 1123]

IC50 [1, 16]: < 10 µM
IC50 [1, 17]: < 10 µM
IC50 [2, 18]: > 10 µM
Compound: C[C@@H]1Oc2ccc(Nc3nc(Nc4ccc(-c5cnco5)cc4)ncc3F)cc2NC1=O [Compound 225]

IC50 [1, 19]: < 10 µM
IC50 ([1]; low cell density CHMC, tryptase, 8 pt, read-out: LD Tryptase, CHMC, IgE, 8 pt): < 10 µM
IC50 [2, 20]: > 10 µM
Compound: CC(=O)N1CCN(c2cccc(Nc3ncc(F)c(Nc4ccc5c(c4)OC(F)(F)C(F)(F)O5)n3)c2)CC1 [Compound 431]

IC50 [1, 11]: < 10 µM
IC50 [2, 12]: > 10 µM
Compound: CNC(=O)c1ccc(Nc2ncc(F)c(Nc3cc(OC)cc(OC)c3)n2)cc1Cl [Compound 465]

IC50 [1, 8]: < 10 µM
IC50 [1, 9]: < 10 µM
IC50 [2, 10]: < 10 µM
Compound: CNC(=O)COc1ccc(Nc2nc(Nc3ccc4[nH]ccc4c3)ncc2F)cc1Cl [Compound 625, N4-[3-Chloro-4-(N-methylamino)carbonylmethyleneoxyphenyl]-5-fluoro-N2-(indol-5-yl)-2,4-pyrimidinediamine]

IC50 [1, 13]: < 10 µM
IC50 [2, 14]: < 10 µM
Compound: COC(=O)c1cc2cc(Nc3ncc(F)c(N(C)c4cc(OC)cc(OC)c4)n3)ccc2o1 [Compound 401]

IC50 [1, 6]: < 10 µM
IC50 [1, 21]: < 10 µM
IC50 [2, 7]: < 10 µM
Compound: CN(c1ccc2c(c1)NC(=O)C(C)(C)O2)c1nc(Nc2ccc(-c3ncco3)cc2)ncc1F [Compound 1021]

IC50 [1, 3]: < 10 µM
IC50 [1, 4]: < 10 µM
IC50 [2, 5]: > 10 µM
Compound: COCCn1ncc2cc(Nc3ncc(F)c(Nc4ccc(F)c(OC)c4)n3)ccc21 [Compound 774, 5-Fluoro-N4-(4-fluoro-3-methoxyphenyl)-N2-[1-(2-methoxyethyl)indazol-5-yl]-2,4-pyrimidinediamine]

IC50 [1, 15]: > 10 µM
IC50 ([2]; low cell density, 3 pt): > 10 µM
Compound: N2- (Bis-2-hydroxyethyl)-N4- (3,4-ethylenedioxyphenyl)-5-fluoro-N4-methyl-2,4-pyrimidinediamine [Compound 492]

IC50 [1, 13]: > 10 µM
IC50 [2, 14]: > 10 µM
Compound: COc1cc(Nc2ncc(F)c(N(C)c3ccc4c(c3)NC(=O)C(C)(C)O4)n2)cc(OC)c1 [Compound 388]

IC50 [1, 11]: > 10 µM
IC50 [2, 12]: > 10 µM
Compound: CC(C)Nc1ncc(F)c(N(C)c2ccc3c(c2)OCCO3)n1 [Compound 471, N4-(3,4-Ethylenedioxyphenyl)-5-fluoro-N2-isopropyl-N4-methyl-2,4-pyrimidinediamine]

IC50 [1, 8]: < 10 µM
IC50 [2, 10]: > 10 µM
Compound: CNC(=O)Cn1ccc2ccc(Nc3ncc(F)c(Nc4ccc(Cl)c(OC)c4)n3)cc21 [Compound 663, N4-(4-Chloro-3-methoxyphenyl)-5-fluoro-N2-[1-(N-methylamino)carbonylmethyleneindol-6-yl]-2,4-pyrimidinediamine]

IC50 [1, 6]: < 10 µM
IC50 [1, 21]: < 10 µM
IC50 [2, 7]: > 10 µM
Compound: Cc1cc(Nc2ncc(F)c(Nc3ccc4c(c3)NC(=O)C(C)(C)O4)n2)cc(Cl)c1OC1CCCC1 [Compound 1018, N2-[3-Chloro-4-cyclopentyloxy-5-methylphenyl]-N4-(2,2-dimethyl-3-oxo-4H-benz[1,4]oxazin-6-yl)-5-fluoro-2,4-pyrimidinediamine]

Compound: CC(=O)N1CCN(c2cccc(Nc3ncc(F)c(NC4CN(C(=O)OC(C)(C)C)C4)n3)c2)CC1 [Compound 1120, N2-[3-(4-Acetylpiperazino)phenyl]-N4-(1-tert-butoxycarbonylazetidin-3-yl)-5-fluoro-2,4-pyrimidinediamine]
IC50 [1, 13]: > 10 µM
IC50 [2, 14]: > 10 µM

IC50 [1, 16]: < 10 µM
IC50 [1, 17]: < 10 µM
IC50 [2, 18]: > 10 µM
Compound: COc1cc(C)c(Nc2ncc(F)c(Nc3ccc4c(c3)NC(C)(C)CO4)n2)cc1Cl [Compound 216, N2-(3-Chloro-4-methoxy-6-methylphenyl)-N4-(3,4-dihydro-3,3-dimethyl-2H,4H-benz[1,4]oxazin-6-yl)-5-fluoro-2,4-pyrimidinediamine]

IC50 [1, 3]: < 10 µM
IC50 [1, 4]: < 10 µM
IC50 [2, 5]: > 10 µM
Compound: COc1cc(Nc2ncc(F)c(Nc3ccc4c(c3)NC(=O)CS4)n2)cc(OC)c1 [Compound 256]

Compound: CC(C)(C)OC(=O)NC1CCOc2ccc(Nc3nc(Nc4cccc(-c5cnco5)c4)ncc3F)cc21 (stereo not drawn) [Compound 1287, N4-(4-N-tert-Butoxycarbonylamino-3,4-dihydro-2H-1-benzopyran-6-yl)-5-fluoro-N2-[3-(oxazol-5-yl)phenyl]-2,4-pyrimidinediamine]
IC50 [1, 19]: < 10 µM
IC50 [2, 20]: > 10 µM

Source: patent publication US20220073536A1 (Rigel Pharmaceuticals, Inc., priority 2003, published 2022)
